Results published in publication PMC10377601, “Side Chain-Modified Benzothiazinone Derivatives with Anti-Mycobacterial Activity” (Biomedicines, 2023).
In brackets after ≈: the same amount, converted by molar mass.

Columns and labels:
[1] = Cytotoxicity against HepG2 cell, MTT assay; format: cell-based; details: human, HepG2 cells, at 5.0 μg/mL, 24 h
Method: (§1) HepG2 cells we r e obtained from the Chinese Type Culture Collection (Shanghai, China) and maintained in Dulbecco’s modiﬁed eagle medium (Gibco; #C11995500BT) con‐ taining 1% (v/v) penicillin/streptomycin (Beyotime; #C0222) and 10% (v/v) fetal bovine se‐ rum (Gibco; #GB10270106) in an atmosphere of 5% CO2 at 37 °C. HepG2 cells we r e seeded into 96‐we l l plates at a density of 5,000 cells/well (100 µL total volume) and treated with diﬀerent concentrations of compound 2 and 37 (0, 0.025, 0.2, 1, 5, and 10 µg/mL). After 24 h the medium wa s removed and the cells we r e incubated in a fresh medium containing 5 mg/mL MTT for 4 h. The medium wa s then removed and the precipitated formazan wa s dissolved in 100 µL of DMSO followed by shaking for 10 min. Finally, the absorbance at 570 nm wa s measured on a microplate spectrophotometer. Each treatment wa s performed […]
(§2) Figure S1. Inhibitory activity of compounds 2 and 37 against HepG2 cell. […]

[2] = system: HepG2 cell; assay: Cytotoxicity against HepG2 cell, MTT assay; format: cell-based; details: at a concentration lower than 1.0 μg/mL
Method: as §1, §2

[3] = system: M. tuberculosis H37Rv; assay: In vivo efficacy, mouse model acutely infected with Mtb H37Rv, lung CFU; details: BALB/C mice, oral 50 mg/kg once per day for 4 weeks except weekends
[4] = system: M. tuberculosis H37Rv; assay: [14C]-acetate metabolic labeling, TLC analysis of lipids; format: cell-based; details: Mtb H37Rv, 10 × MIC, 100 × MIC, 24 h, compared to control bacteria
[5] = Pharmacokinetic study in mice; format: in vivo; details: male, ICR, mouse, plasma; for clearance: read-out: Clint (hepatic clearance) (converted); for bioavailability: oral, p.o. 10 mg/kg vs i.v. 2 mg/kg, read-out: F (oral bioavailability)
Excerpt: Animal Care and Welfare Committee of Shanghai Institute of Materia Medica, Chinese Academy of Sciences approved all animal protocols. All animal programs are in compliance with the Guide for the Care and Use of Laboratory Animals issued by Shanghai Association on Laboratory Animal Care (SALAC). SPF male ICR mice weighing 25–27 g were divided into two groups, three mice in each group. The tested compounds were administrated via oral and intravenous injection, separately. […] The compound was co-dissolved by using 0.5% carboxymethyl cellulose for p.o. administration, and 10% DMSO/40%PEG400/40% water was used for i.v. administration, respectively. After oral dosing or i.v. administration, the blood was sampled at 5, 15, 30 min, and 1, 2, 4, 7, and 24 h. The sample plasma was harvested and stored at −80 °C for analysis. Based on noncompartmental analysis (Pharsight Corporation, Sunnyvale, CA, USA), the pharmacokinetic data were analyzed using WinNonlin software version 6.3.

[6] = system: E. coli; assay: Inhibitory potency against E. coli; format: cell-based; details: at 16 µg/mL
[7] = in vitro; format: in vitro ADME; set-up: dose or concentration left out as unconfirmed; details: human, microsomes, pH 7.4
Method: The compounds’ metabolic stability were determined in human liver microsomes. A solution of microsomes (0.2 mg/mL) containing the compounds […], NADPH (1 mM), and phosphate buffer (100 mM, pH 7.4) were prepared. Pre-incubation was conducted at 37 °C for 10 min. There was addition of 50 µL and 5 mM NADPH to initiate the reaction. At 5, 15, 30, 60, or 120 min, 30 µL of reaction solution was taken out and quenched with 300 µL internal standard tolbutamide (10 ng/mL) in cold CH3CN. The mixture was centrifuged at 6000 rpm for 15 min at 4 °C. Then, 100 μL supernatant was diluted with 100 uL ultrapure water (Millipore, ZMQS50F01). The solution was analyzed via LC/MS analysis.

[8] = Kinetic solubility in PBS; details: pH 7.4, aqueous buffer, kinetic from dmso stock
[9] = system: M. tuberculosis H37Rv; assay: MIC determination by microplate alamar blue assay (MABA); format: cell-based; details: Mycobacterium tuberculosis
[10] = target: T1, recombinant M. tuberculosis DprE1 enzyme (Mycobacterium tuberculosis, UniProt P9WJF1); assay: DprE1 inhibition, Amplex Red/peroxidase coupled assay; format: biochemical; details: Mtb DprE1
T1 construct: made in house; host or cells: E. coli
T1 sequence (P9WJF1 whole entry): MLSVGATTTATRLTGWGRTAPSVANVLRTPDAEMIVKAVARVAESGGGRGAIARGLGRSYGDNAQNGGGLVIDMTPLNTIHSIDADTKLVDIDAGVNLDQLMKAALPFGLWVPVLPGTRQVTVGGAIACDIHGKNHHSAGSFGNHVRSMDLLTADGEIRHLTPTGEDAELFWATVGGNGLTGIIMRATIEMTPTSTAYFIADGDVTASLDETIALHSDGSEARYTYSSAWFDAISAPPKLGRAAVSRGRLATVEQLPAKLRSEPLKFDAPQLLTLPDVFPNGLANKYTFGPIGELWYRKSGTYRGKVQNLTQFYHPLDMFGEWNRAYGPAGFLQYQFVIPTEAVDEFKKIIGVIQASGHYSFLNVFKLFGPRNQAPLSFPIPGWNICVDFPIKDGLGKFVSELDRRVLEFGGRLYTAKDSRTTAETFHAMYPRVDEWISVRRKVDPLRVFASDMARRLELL

[11] = system: Mycobacterium tuberculosis; set-up: method as in PMID 24500695; details: whole-cell activity; cited from earlier work
[12] = physchem; details: pH 7.4, aqueous buffer, kinetic from dmso stock

SMILES | viability at 24 h, 5 μg/mL [1] | Inhibition of HepG2 cell viability [2] | Reduction of bacteria load in the lungs compared to the control group [3] | Lipid profile after [14C]-acetate labeling [4] | AUC ([5]; IV 2 mg/kg) | Cmax ([5]; IV 2 mg/kg) | MRT ([5]; IV 2 mg/kg) | half-life ([5]; IV 2 mg/kg) | clearance ([5]; IV 2 mg/kg) | AUC ([5]; PO 10 mg/kg) | Cmax ([5]; PO 10 mg/kg) | MRT ([5]; PO 10 mg/kg) | half-life ([5]; PO 10 mg/kg) | bioavailability [5] | Inhibitory potency against E. coli [6] | CLint scaled [7] | half-life [7] | solubility at 4 h [8] | MIC ([9]; Mtb H37Rv, MABA) | IC50 [10] | further results
CN(Cc1cn(-c2ccccc2)nn1)c1nc(=O)c2cc(C(F)(F)F)cc([N+](=O)[O-])c2s1 [Compound 2, 2-{methyl[(1-phenyl-1H-1,2,3-triazol-4-yl)methyl]amino}-BTZ] | 72 to 75% | No inhibition of cell viability | barely displayed efficacy | accumulated trehalose monomycolates (TMM) and trehalose dimycolates (TDM) | 1210 ng·h/mL | 1250 ng/mL | 1.5 h | 1.1 h | 27.8 mL/min/kg | 2190 ng·h/mL | 1800 ng/mL | 2 h | 1.3 h | 35.7% | no obvious activity | 17.3 mL/min/kg | 1.67 h | 0.13 µg/mL (≈ 0.281 µM) | 9 nM | 20 to 750 nM | MIC ([9]; 168 h, Mtb H37Rv, MABA): 9 nM
CN(Cc1nnc(-c2ccccc2)o1)c1nc(=O)c2cc(C(F)(F)F)cc([N+](=O)[O-])c2s1 [Compound 37, 2-{methyl[(5-phenyl-1,3,4-oxadiazol-2-yl)methyl]amino}-BTZ] | 72 to 75% | No inhibition of cell viability | 1.2 logs | accumulated trehalose monomycolates (TMM) and trehalose dimycolates (TDM) | 528 ng·h/mL | 1860 ng/mL | 0.4 h | 0.3 h | 64 mL/min/kg | 1870 ng·h/mL | 1890 ng/mL | 0.9 h | 0.6 h | 70.6% | no obvious activity | 25.5 mL/min/kg | 1.14 h | 0.25 µg/mL (≈ 0.539 µM) | 6 nM | 20 to 750 nM | –
O=c1nc(N2CCN(CC3CCCCC3)CC2)sc2c([N+](=O)[O-])cc(C(F)(F)F)cc12 [PBTZ169, reference compound] | – | – | 3 logs | accumulated trehalose monomycolates (TMM) and trehalose dimycolates (TDM) | – | – | – | – | – | – | – | – | – | – | – | – | – | – | < 4 nM | – | minimal inhibitory concentration (MIC) [11]: lower than 0.004 µM; solubility at 4 h [12]: < 0.011 µg/mL; MIC ([9]; H37Rv, Table S1): 0.2 ng/mL
